What was measured:
[1] = system: SN12C; assay: Growth inhibition of human SN12C cells assessed as cell growth at 100 uM incubated for 48 hrs by sulforhodamine B assay relative to control; type: functional; settings: read-out: Activity
[2] = system: SF-268; assay: Growth inhibition of human SF268 cells incubated for 48 hrs by sulforhodamine B assay; type: functional, cell-based; settings: SF-268, 48 h
[3] = system: OVCAR-5; assay: Growth inhibition of human OVCAR5 cells assessed as cell growth at 1 uM incubated for 48 hrs by sulforhodamine B assay relative to control; type: functional; settings: OVCAR-5, 48 h, read-out: Activity
[4] = system: NCI-H522; assay: Growth inhibition of human NCI-H522 cells assessed as cell growth at 100 uM incubated for 48 hrs by sulforhodamine B assay relative to control; type: functional; settings: NCI-H522, 48 h, read-out: Activity
[5] = system: UO-31; assay: Growth inhibition of human UO31 cells assessed as cell growth at 0.1 uM incubated for 48 hrs by sulforhodamine B assay relative to control; type: functional; settings: UO-31, 48 h, read-out: Activity
[6] = system: M14; assay: Growth inhibition of human M14 cells assessed as cell growth at 0.1 uM incubated for 48 hrs by sulforhodamine B assay relative to control; type: functional; settings: M14, 48 h, read-out: Activity
[7] = system: SF-539; assay: Growth inhibition of human SF539 cells incubated for 48 hrs by sulforhodamine B assay; type: functional, cell-based; settings: SF-539, 48 h
[8] = system: HOP-62; assay: Growth inhibition of human HOP62 cells assessed as cell growth at 0.01 uM incubated for 48 hrs by sulforhodamine B assay relative to control; type: functional; settings: HOP-62, 48 h, read-out: Activity
[9] = system: SF-268; assay: Growth inhibition of human SF268 cells assessed as cell growth at 100 uM incubated for 48 hrs by sulforhodamine B assay relative to control; type: functional; settings: SF-268, 48 h, read-out: Activity
[10] = system: OVCAR-4; assay: Growth inhibition of human OVCAR4 cells assessed as cell growth at 1 uM incubated for 48 hrs by sulforhodamine B assay relative to control; type: functional; settings: OVCAR-4, 48 h, read-out: Activity
[11] = system: 786-0; assay: Growth inhibition of human 786-0 cells incubated for 48 hrs by sulforhodamine B assay; type: functional, cell-based; settings: 786-0, 48 h
[12] = system: MCF7; assay: Growth inhibition of human MCF7 cells incubated for 48 hrs by sulforhodamine B assay; type: functional, cell-based; settings: MCF7, 48 h
[13] = system: A549; assay: Growth inhibition of human A549/ATCC cells assessed as cell growth at 100 uM incubated for 48 hrs by sulforhodamine B assay relative to control; type: functional; settings: A549, 48 h, read-out: Activity
[14] = system: BT-549; assay: Growth inhibition of human BT549 cells assessed as cell growth at 1 uM incubated for 48 hrs by sulforhodamine B assay relative to control; type: functional; settings: BT-549, 48 h, read-out: Activity
[15] = system: SK-MEL-2; assay: Growth inhibition of human SK-MEL-2 cells incubated for 48 hrs by sulforhodamine B assay; type: functional, cell-based; settings: SK-MEL-2, 48 h
[16] = system: U-251; assay: Growth inhibition of human U251 cells assessed as cell growth at 0.01 uM incubated for 48 hrs by sulforhodamine B assay relative to control; type: functional; settings: U-251, 48 h, read-out: Activity
[17] = system: SK-MEL-28; assay: Growth inhibition of human SK-MEL-28 cells assessed as cell growth at 100 uM incubated for 48 hrs by sulforhodamine B assay relative to control; type: functional; settings: SK-MEL-28, 48 h, read-out: Activity
[18] = system: SK-MEL-5; assay: Growth inhibition of human SK-MEL-5 cells assessed as cell growth at 1 uM incubated for 48 hrs by sulforhodamine B assay relative to control; type: functional; settings: SK-MEL-5, 48 h, read-out: Activity
[19] = system: M14; assay: Growth inhibition of human M14 cells assessed as cell growth at 1 uM incubated for 48 hrs by sulforhodamine B assay relative to control; type: functional; settings: M14, 48 h, read-out: Activity
[20] = system: SNB-75; assay: Growth inhibition of human SNB75 cells assessed as cell growth at 1 uM incubated for 48 hrs by sulforhodamine B assay relative to control; type: functional; settings: SNB-75, 48 h, read-out: Activity
[21] = system: NCI-H226; assay: Growth inhibition of human NCI-H226 cells incubated for 48 hrs by sulforhodamine B assay; type: functional, cell-based; settings: NCI-H226, 48 h
[22] = system: NCI-H460; assay: Growth inhibition of human NCI-H460 cells assessed as cell growth at 0.1 uM incubated for 48 hrs by sulforhodamine B assay relative to control; type: functional; settings: NCI-H460, 48 h, read-out: Activity
[23] = system: BT-549; assay: Growth inhibition of human BT549 cells incubated for 48 hrs by sulforhodamine B assay; type: functional, cell-based; settings: BT-549, 48 h
[24] = system: SK-MEL-5; assay: Growth inhibition of human SK-MEL-5 cells incubated for 48 hrs by sulforhodamine B assay; type: functional, cell-based; settings: SK-MEL-5, 48 h
[25] = system: SR; assay: Growth inhibition of human SR cells incubated for 48 hrs by sulforhodamine B assay; type: functional, cell-based
[26] = system: MOLT-4; assay: Growth inhibition of human MOLT4 cells incubated for 48 hrs by sulforhodamine B assay; type: functional, cell-based; settings: MOLT-4, 48 h
[27] = read-out: LC50 (the source's name)
[28] = read-out: pLC50 (the source's name) (converted)

O=C(Nc1cccc(-n2cc(-c3ccncc3)c(-c3cc(O)cc(Cl)c3)n2)c1)c1cc(C(F)(F)F)cc(C(F)(F)F)c1
growth at 100 µM [1]: 17% | GI50 ([2]; read-out: GI50): 6.38 µM | CC50 [2, 27]: > 100 µM | TGI ([2]; read-out: TGI): > 100 µM | GI50 ([2]; read-out: pGI50 (converted)): 6.46 µM | CC50 [2, 28]: > 100 µM | TGI ([2]; read-out: pTGI (converted)): > 100 µM | growth at 1 µM [3]: 99% | growth at 100 µM [4]: -18% | growth at 0.1 µM [5]: 70% | growth at 0.1 µM [6]: 93% | GI50 ([7]; read-out: GI50): 5.01 µM | CC50 [7, 27]: > 100 µM | TGI ([7]; read-out: TGI): 51.7 µM | GI50 ([7]; read-out: pGI50 (converted)): 5.01 µM | CC50 [7, 28]: > 100 µM | TGI ([7]; read-out: pTGI (converted)): 51.3 µM | growth at 0.01 µM [8]: 103% | growth at 100 µM [9]: 31% | growth at 1 µM [10]: 101% | GI50 ([11]; read-out: GI50): 3.12 µM | CC50 [11, 27]: > 100 µM | TGI ([11]; read-out: TGI): 21.1 µM | GI50 ([11]; read-out: pGI50 (converted)): 3.09 µM | CC50 [11, 28]: > 100 µM | TGI ([11]; read-out: pTGI (converted)): 20.9 µM | GI50 ([12]; read-out: GI50): 2.55 µM | LC50 ([12]; read-out: LC50): > 100 µM | TGI ([12]; read-out: TGI): > 100 µM | GI50 ([12]; read-out: pGI50 (converted)): 2.88 µM | LC50 ([12]; read-out: pLC50 (converted)): > 100 µM | TGI ([12]; read-out: pTGI (converted)): > 100 µM | growth at 100 µM [13]: 4% | growth at 1 µM [14]: 101% | GI50 ([15]; read-out: GI50): 3.28 µM | CC50 [15, 27]: > 100 µM | TGI ([15]; read-out: TGI): 95.1 µM | GI50 ([15]; read-out: pGI50 (converted)): 3.31 µM | CC50 [15, 28]: > 100 µM | TGI ([15]; read-out: pTGI (converted)): 9.55 µM | growth at 0.01 µM [16]: 96% | growth at 100 µM [17]: -2% | growth at 1 µM [18]: 90% | growth at 1 µM [19]: 85% | growth at 1 µM [20]: 72% | GI50 ([21]; read-out: GI50): 1.51 µM | LC50 ([21]; read-out: LC50): > 100 µM | TGI ([21]; read-out: TGI): > 100 µM | GI50 ([21]; read-out: pGI50 (converted)): 16.2 µM | LC50 ([21]; read-out: pLC50 (converted)): > 100 µM | TGI ([21]; read-out: pTGI (converted)): > 100 µM | growth at 0.1 µM [22]: 100% | GI50 ([23]; read-out: GI50): 4.58 µM | CC50 [23, 27]: > 100 µM | TGI ([23]; read-out: TGI): 48.8 µM | GI50 ([23]; read-out: pGI50 (converted)): 4.68 µM | CC50 [23, 28]: > 100 µM | TGI ([23]; read-out: pTGI (converted)): 46.8 µM | GI50 ([24]; read-out: GI50): 2.51 µM | CC50 [24, 27]: > 100 µM | TGI ([24]; read-out: TGI): 86.7 µM | GI50 ([24]; read-out: pGI50 (converted)): 2.63 µM | CC50 [24, 28]: > 100 µM | TGI ([24]; read-out: pTGI (converted)): 8.91 µM | GI50 ([25]; read-out: GI50): 1.51 µM | CC50 [25, 27]: > 100 µM | TGI ([25]; read-out: TGI): 50.1 µM | GI50 ([25]; read-out: pGI50 (converted)): 1.62 µM | CC50 [25, 28]: > 100 µM | TGI ([25]; read-out: pTGI (converted)): 5.01 µM | GI50 ([26]; read-out: GI50): 2.38 µM | CC50 [26, 27]: > 100 µM | TGI ([26]; read-out: TGI): > 100 µM | GI50 ([26]; read-out: pGI50 (converted)): 2.4 µM | CC50 [26, 28]: > 100 µM | TGI ([26]; read-out: pTGI (converted)): > 100 µM
